The text below walks through data of US8841299B2, “Substituted pyrrolo[1,2-a]pyrazines as tankyrase inhibitors” (Hoffman-La Roche Inc., priority 2012, dated 2014).

SMILES strings stand for the structures.

The target of one assay is T1, Tankyrase 1 (TNKS1) (Homo sapiens, UniProt O95271).
T1 construct: His6-TNKS1, MW=28.2 KDa (construct: 1088-1327, I266M)
Nature of the assay: μHTS-TNKS-IWR2 TR-FRET binding assay, TNKS1. As to the method:
(§1) μHTS-TNKS-IWR2 TR-FRET Binding Assay
(§2) (10 μL/well in BD1536-well plate, a single point)
(§3) Biotin-IWR2: 10 mM Biotin-IWR2 stock in DMSO, stored at −20° C.
(§4) Assay buffer 1a (AB1a) for TNKS dilution: 50 mM Tris, pH 7.4, 100 mM sodium chloride solution, 1 mM magnesium chloride solution, 1 mM DL-dithiothreitol solution, 0.2 mg/mL bovine serum albumin solution, 0.025% NP-40.
(§5) Assay buffer 1b (AB1b) for Biotin-IWR2 dilution: 50 mM Tris, pH 7.4, 100 mM sodium chloride solution, 1 mM magnesium chloride solution, 1 mM DL-dithiothreitol solution, 0.2 mg/mL bovine serum albumin solution, 0.05% NP-40
(§6) Assay buffer 1c (AB1c) for compound dilution: 50 mM Tris, pH 7.4, 100 mM sodium chloride solution, 1 mM magnesium chloride solution, 1 mM DL-dithiothreitol solution, 0.2 mg/mL bovine serum albumin solution
(§7) Assay buffer 2 (AB2) for Eu/APC: 50 mM Tris, pH 7.4, 100 mM sodium chloride solution, 1 mM magnesium chloride solution, 0.2 mg/mL bovine serum albumin solution
(§8) Prepare BLANK well stock solution: 5% DMSO/AB1b buffer
(§9) Prepare TNKS1 stock solution (5× stock): 300 nM TNKS in AB1a buffer
(§10) Transfer 3 μL/well of above solution (solution 1, 2, 3) to an empty assay plate (BD1536-well plate) as follows:
(§11) TOTAL and cpd wells: Solution 1 (Biotin-IWR2):
(§12) BLANK wells: Solution 2 (No Biotin-IWR2):
(§13) POSITIVE CONTROL wells: Solution 3 (Biotin-IWR2+XAV939)
(§14) Transfer 3 μL/well of the above diluted compound solutions or compound dilution buffer to the above assay plate.
(§15) Add 2 μL/well of 300 nM TNKS stock solution (4) to every well in the above assay plate
(§16) Centrifuge the assay plate at 2100 rpm for 2 minutes.
(§17) Incubate the assay plate at 26° C. for 30 minutes.
(§18) Add 2 μL/well 3.5 nMEu/50 nM APC solution (5) to every well in the above assay plate.
(§19) Incubate the assay plate at 26° C. for 60 minutes.
For orientation: In TR-FRET formats the signal depends on donor and acceptor labels being close together.

The target in the next assay is T2, PARP1 (Homo sapiens, UniProt P09874).
T2 construct: or His6-PARP1 (full length)
Nature of the assay: μHTS-TNKS-IWR2 TR-FRET binding assay, PARP1 in place of TNKS1. The conditions noted are these: His6-PARP1 (full length), Biotin-IWR2 60 nM. On the procedure:
as §1, §2
(§20) Tankyrase 1 (TNKS1): 184.3 μM=5.2 mg/mL His6-TNKS1, MW=28.2 KDa (construct: 1088-1327, I266M) in 20 mM Tris pH 8, 150 mM NaCl, 10% glycerol, and 0.5 mM TCEP Alternatively, in place of His6-TNKS1 can use either His6-tankyrase 2 (construct: 934-1166) (His6-TNKS2) or His6-PARP1 (full length).
as §3
Positive control: 10 mM […] in DMSO, stored at −20° C.
(§21) Eu-Streptavidin: 38.1 μM (2.1 mg/mL) Eu-SA (Bio #Eu-2212, Lot #N 18001-BDHO2)
(§22) APC-anti-His Ab: 8.50 μM SL-APC, 8.26 μM anti-6His antibody-SureLight APC (Columia Bioscience, Cat #D3-1711, Lot #N01010-AAH04)
(§23) Assay plate: BD 1536-well, clear/black plate (Cat #353255)
as §4, §5, §6, §7
(§24) Prepare Biotinylated IWR2 stock solution (3.33× stock) for TOTL and cpd wells: 200 nM Biotin-IWR2 in 5% DMSO/AB1b buffer
as §8
(§25) Prepare POSITIVE CONTROL well stock solution (3.33× stock): 200 nM XAV939 in 200 nM Biotin-IWR2/5% DMSO/AB1b buffer
as §9
(§26) (Alternatively, use TNKS2 or PARP1 stock solutions.)
(§27) Prepare Eu/APC stock solution (5× stock): 3.5 nM Eu-SA/50 nM APC-His6Ab in AB2 buffer
(§28) Add 25 μL/well 1.5% DMSO/AB1c buffer in each compound well to the compound concentration at 74 μM in 8.8% DMSO/AB1c buffer or in the 2 μL DMSO CONTROL wells (BLANK, TOTAL and POSITIVE wells) in the compound plate.
as §10, §11, §12, §13, §14, §15, §16, §17, §18, §19
(§29) Read the assay plate immediately at excitation wavelength of 330 nm and emission wavelength of […] in time resolved fluorescence mode.
(§30) General Library compounds: 22.23 μM in 4% DMSO

A further assay concerns the target T3, tankyrase 2 (TNKS2) (Homo sapiens, UniProt Q9H2K2).
T3 construct: His6-tankyrase 2 (construct: 934-1166) (His6-TNKS2)
Nature of the assay: μHTS-TNKS-IWR2 TR-FRET binding assay, TNKS2 in place of TNKS1. The conditions noted are these: His6-TNKS2 (construct 934-1166), Biotin-IWR2 60 nM. As to the method: as §1, §2, §20, §3
Positive control: 10 mM XAV 939 in DMSO, stored at −20° C.
as §21, §22, §23, §4, §5, §6, §7, §24, §8, §25, §9, §26, §27, §28, §10, §11, §12, §13, §14, §15, §16, §17, §18, §19, §29
XAV939 (+ve control): 60 nM at ˜70% Inhibition
as §30

T1 sequence (O95271 1088-1327): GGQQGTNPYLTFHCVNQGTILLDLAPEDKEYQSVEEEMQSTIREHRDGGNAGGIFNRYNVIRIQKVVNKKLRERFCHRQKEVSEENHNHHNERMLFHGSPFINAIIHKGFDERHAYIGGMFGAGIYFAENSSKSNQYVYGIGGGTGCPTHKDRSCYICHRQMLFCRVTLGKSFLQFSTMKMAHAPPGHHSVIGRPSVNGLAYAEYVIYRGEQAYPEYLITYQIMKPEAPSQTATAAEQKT
T2 sequence (P09874 whole entry): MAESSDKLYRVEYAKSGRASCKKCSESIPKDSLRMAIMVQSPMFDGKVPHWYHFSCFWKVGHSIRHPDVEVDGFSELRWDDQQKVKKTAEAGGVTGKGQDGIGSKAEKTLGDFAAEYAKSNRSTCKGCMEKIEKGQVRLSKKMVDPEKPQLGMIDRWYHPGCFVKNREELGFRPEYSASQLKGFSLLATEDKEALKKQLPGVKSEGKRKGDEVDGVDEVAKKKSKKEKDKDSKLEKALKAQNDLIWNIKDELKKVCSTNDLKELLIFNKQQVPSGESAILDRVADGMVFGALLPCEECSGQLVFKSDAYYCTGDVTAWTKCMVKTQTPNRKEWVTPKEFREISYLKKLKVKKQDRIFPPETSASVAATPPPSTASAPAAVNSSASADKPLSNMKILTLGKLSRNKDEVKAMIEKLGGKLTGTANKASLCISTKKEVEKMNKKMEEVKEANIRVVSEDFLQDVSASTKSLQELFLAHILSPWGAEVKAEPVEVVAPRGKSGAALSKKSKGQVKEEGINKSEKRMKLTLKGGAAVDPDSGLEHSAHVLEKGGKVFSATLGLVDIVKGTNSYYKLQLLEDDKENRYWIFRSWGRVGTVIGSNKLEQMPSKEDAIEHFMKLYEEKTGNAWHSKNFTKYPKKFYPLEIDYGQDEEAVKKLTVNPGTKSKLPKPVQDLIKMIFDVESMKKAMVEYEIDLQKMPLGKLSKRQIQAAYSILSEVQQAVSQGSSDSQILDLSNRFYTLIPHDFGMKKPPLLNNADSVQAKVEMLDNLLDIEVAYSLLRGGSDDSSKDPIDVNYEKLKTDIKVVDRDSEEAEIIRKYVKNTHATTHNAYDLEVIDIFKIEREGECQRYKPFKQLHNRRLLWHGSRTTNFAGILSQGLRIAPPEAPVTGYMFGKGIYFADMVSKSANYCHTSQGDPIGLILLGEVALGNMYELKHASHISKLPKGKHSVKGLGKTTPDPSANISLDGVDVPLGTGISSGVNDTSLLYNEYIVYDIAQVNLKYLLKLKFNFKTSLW
T3 sequence (Q9H2K2 934-1166): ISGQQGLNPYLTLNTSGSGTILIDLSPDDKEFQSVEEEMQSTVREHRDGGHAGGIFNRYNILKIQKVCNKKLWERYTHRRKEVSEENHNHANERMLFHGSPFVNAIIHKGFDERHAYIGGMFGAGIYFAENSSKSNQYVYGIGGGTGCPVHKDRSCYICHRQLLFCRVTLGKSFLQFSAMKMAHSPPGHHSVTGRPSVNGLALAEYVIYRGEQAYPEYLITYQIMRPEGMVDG

On to `COc1ccc(-c2cn3c(Br)ccc3c(=O)[nH]2)cc1` [Example 1, 6-Bromo-3-(4-methoxy-phenyl)-2H-pyrrolo[1,2-a]pyrazin-1-one], for which the IC50 (as a rule, the concentration that inhibits the measured activity by half) at Tankyrase 1 (TNKS1) is 54 nM; on PARP1, > 50000 nM; on tankyrase 2 (TNKS2) it was 145 nM.

For the compound `N#Cc1ccc2c(=O)[nH]c(-c3ccc(C(F)(F)F)cc3)cn12` [Example 2, 1-Oxo-3-(4-trifluoromethyl-phenyl)-1,2-dihydro-pyrrolo[1,2-a]pyrazine-6-carbonitrile], the IC50 at Tankyrase 1 (TNKS1) came out at 232 nM; at PARP1, 31200 nM; at tankyrase 2 (TNKS2) it was 995 nM.

Turning to `N/C(=N\O)c1ccc2c(=O)[nH]c(-c3ccc(C(F)(F)F)cc3)cn12` [Example 3, N-Hydroxy-1-oxo-3-(4-trifluoromethyl-phenyl)-1,2-dihydro-pyrrolo[1,2-a]pyrazine-6-carboxamidine], the results for the half-maximal inhibitory concentration (IC50) at Tankyrase 1 (TNKS1), on PARP1 and at tankyrase 2 (TNKS2) were 192 nM, > 50000 nM and 1260 nM, respectively.

For `NC(=O)c1ccc2c(=O)[nH]c(-c3ccc(C(F)(F)F)cc3)cn12` [Example 4, 1-Oxo-3-(4-trifluoromethyl-phenyl)-1,2-dihydro-pyrrolo[1,2-a]pyrazine-6-carboxylic acid amide], the IC50 came out at 770 nM at Tankyrase 1 (TNKS1), 29500 nM at PARP1 and 1900 nM at tankyrase 2 (TNKS2).

Take `N=C(N)c1ccc2c(=O)[nH]c(-c3ccc(C(F)(F)F)cc3)cn12` [Example 5, 1-Oxo-3-(4-trifluoromethyl-phenyl)-1,2-dihydro-pyrrolo[1,2-a]pyrazine-6-carboxamidine]: the IC50 at Tankyrase 1 (TNKS1) is 6790 nM; on PARP1 it was > 50000 nM; at tankyrase 2 (TNKS2), 12700 nM.

On to `O=c1[nH]c(-c2ccc(C(F)(F)F)cc2)cn2c(C3=NCCN3)ccc12` [Example 6, 6-(4,5-Dihydro-1H-imidazol-2-yl)-3-(4-trifluoromethyl-phenyl)-2H-pyrrolo[1,2-a]pyrazin-1-one], for which the half-inhibitory concentration (IC50) at Tankyrase 1 (TNKS1) was found to be 1110 nM; on PARP1 it was 34900 nM; at tankyrase 2 (TNKS2) it was 1840 nM.

As for `Cc1ccc2c(=O)[nH]c(-c3ccc(C(F)(F)F)cc3)cn12` [Example 7, 6-Methyl-3-(4-trifluoromethyl-phenyl)-2H-pyrrolo[1,2-a]pyrazin-1-one], the 50% inhibitory concentration (IC50) was 32 nM at Tankyrase 1 (TNKS1), 172 nM on PARP1 and 72 nM on tankyrase 2 (TNKS2).

For `O=c1[nH]c(-c2ccc(C(F)(F)F)cc2)cn2c(CO)ccc12` [Example 8, 6-Hydroxymethyl-3-(4-trifluoromethyl-phenyl)-2H-pyrrolo[1,2-a]pyrazin-1-one], the figures for the concentration for half-maximal inhibition (IC50) at Tankyrase 1 (TNKS1), at PARP1 and on tankyrase 2 (TNKS2) were 17 nM, 11400 nM and 715 nM, respectively.

Regarding `Cc1ccc2c(=O)[nH]c(N3CCN(c4ccccc4F)CC3)cn12` [Example 9, 3-[4-(2-Fluoro-phenyl)-piperazin-1-yl]-6-methyl-2H-pyrrolo[1,2-a]pyrazin-1-one], the IC50 at Tankyrase 1 (TNKS1) worked out at 68 nM; at PARP1, 2740 nM; at tankyrase 2 (TNKS2) it was 68 nM.

As to `O=c1[nH]c(-c2ccc(C(F)(F)F)cc2)cn2c(Br)ccc12` [Example 10, 6-Bromo-3-(4-trifluoromethyl-phenyl)-2H-pyrrolo[1,2-a]pyrazin-1-one], the 50% inhibitory concentration (IC50) is 56 nM at Tankyrase 1 (TNKS1), 1250 nM at PARP1 and 158 nM at tankyrase 2 (TNKS2).
